Structures can show the parent of a compound that is named as a salt.
Key:
[1] = system: labile Zn(II) pools in live NIH 3T3 mouse fibroblasts; experiment: Ratiometric TPEM imaging of labile Zn(II) in live cells; type: cell-based
Description: FIG. 25A-25B. Ratiometric imaging of labile Zn(II) pools in live NIH 3T3 mouse fibroblasts with chromis-2 by TPEM (excitation at 720 nm). (FIG. 25A) Left: Phase contrast image (DIC) and fluorescence intensity images acquired with 425-462 nm (BP1) and 478-540 nm (BP2) bandpass filters, respectively. Right: Intensity ratio image with R=BP2/BP1. (FIG. 25B) Left: Ratio images (BP2/BP1) prior (at 3 min) and after addition of 50 μM ZnSO4 and 5 μM pyrithione (at 9 min). […] Right: Time course of the average intensity ratio change for the ROI indicated with a white circle in the left panel. The asterisks indicate time points for the respective ratio images shown to the left. Scale bars: 40 μm.
To evaluate the Zn(II)-dependent ratiometric response of chromis-2 within the chemical complexity of a live cell, we performed a perfusion experiment with NIH 3T3 mouse fibroblasts as model system (FIG. 25). To this end, fibroblast cells were cultured in Dulbecco's modified Eagle's medium (DMEM, Lonza) supplemented with 10% bovine serum (Gemini), penicillin/streptomycin (50 IU/mL), 200 μM L-glutamine, and 100 μM sodium pyruvate at 37° C. under an atmosphere of humidified air containing 5% CO2. For imaging experiments, cells were grown to 70% confluency on MatTek glass bottom culture dishes pre-coated with poly-L-lysine using phenol red-free DMEM (10% bovine serum, 50 IU/mL penicillin/streptomycin, 200 μM L-glutamine, and 100 μM sodium pyruvate). After replacing the growth medium with serum-free DMEM containing chromis-2 (10 μM), cells were incubation for 30 minutes at 37° C. (5% CO2 atmosphere), and the incubation solution was again replaced with pre-warmed full media. Cells were imaged in an atmospheric chamber at 37° C., […], and 5% CO2 using a Zeiss LSM confocal NLO 710 microscope equipped with a femtosecond pulsed Ti:sapphire laser. Scanning fluorescence micrographs were acquired with excitation at 720 nm, and the integrated emission intensity was simultaneously collected through two band pass filters between 425-462 nm and 478-540 nm. The corresponding ratio-images were derived with ImageJ based on the integrated photon counts on a pixel-per-pixel basis (FIG. 25A, right). […] Although the fluorescence intensity distribution appears uneven, including distinct punctate localizations, the corresponding ratio-image indicates a rather even fractional saturation with an average ratio R of 0.64±0.2.

[2] = UV-vis absorption spectra in methanol; type: physicochemical; conditions: methanol at 298 K, relative to compound I
From the text: FIG. 26: UV-vis absorption spectra of compounds I, […] in methanol at 298 K.
UV-vis Spectral Characterization of Compounds I, II, and III.

[3] = Fluorescence solvent deuterium-isotope studies (D2O vs H2O buffer); type: physicochemical
Description: Fluorescence Deuterium-Isotope Studies of Compounds 1 & 2. Comparison of the fluorescence intensities of compounds 1 and 2 were conducted in deuterated and non-deuterated buffer (10 mM PIPES, 100 mM KCl, pH/D 7.0, 25° C.). A 3.0-mL solution of aqueous buffer was supplemented with 10 μM of each compound (from 3 mM stock solutions in H2O), and after thorough mixing via magnetic stirring, fluorescence spectra of 1 were acquired over the spectral window of 380-700 nm with excitation at […] and analogous fluorescence spectra of 2 were acquired over the spectral window of 380-650 nm with excitation at […].
Fluorescence Comparison of 3b and chromis-2 (4). Fluorescence comparison measurements of 3b and chromis-2 were conducted in deuterated and non-deuterated buffer (10 mM PIPES, 100 mM KCl, pH/D 7.0, 25° C.). A quartz cuvette with a 1-cm path length containing 3.0 mL of aqueous buffer was supplemented with 5 μM 3b (from a 3 mM stock solution in H2O), and after a 30-second equilibration via magnetic stirring, a fluorescence spectrum was acquired over the spectral window of 380-700 nm with excitation at 361 nm. The probe was then saturated with 5 μM ZnSO4.7H2O (from a 3 mM stock solution in H2O), and a fluorescence spectrum was acquired. This was repeated for 3b in deuterated buffer, but with supplementation of 5 μM ZnSO4.7H2O from a 3 mM stock solution in D2O. […]

[4] = Determination of fluorescence quantum yields (referenced to quinine sulfate); type: physicochemical; conditions: neutral form, 10 mM PIPES, 100 mM KCl, pH 7.0; sodium salt
Description: Determination of Fluorescence Quantum Yields. Fluorescence quantum yields of 1, 2, 3b and chromis-2 (4) were determined in aqueous buffer (10 mM PIPES, 0.1 M KCl) at pH 7.0 by a 4-point measurement over an OD range of 0.1-0.4 using a […], with fluorimeter excitation at 365 nm. For probes 3b and chromis-2, the solutions containing the free forms were supplemented with 20 μM EDTA (from a 30 mM stock solution in diH2O) to sequester adventitious Zn(II), whereas to determine the Zn(II)-bound forms, the solutions were supplemented with 20 μM ZnSO4.7H2O to ensure complete saturation of the fluorophore. Fluorescence quantum yields for all fluorophores were determined using quinine sulfate (Df=0.546 in 1.0 N H2SO4) as a fluorescence standard.^2 To determine the quantum yield of 3a, single-point measurements were performed in aqueous buffer (10 mM PIPES, 0.1 M KCl, pH 7.0) supplemented with 100 μM 4:1 DMPC:DMPG liposomes and at a probe concentration of 2 μM. The quantum yields were also referenced to quinine sulfate with an OD matching that of 3a (2 μM) in liposomes.

[5] = Excited-state pKa calculated using the Forster Cycle; type: physicochemical; conditions: calculated with the Forster Cycle
From the text: To circumvent the issue of excited-state protonation of the fluorophore, the inventors synthesized a chromis-1 compound 1, whose structure lacked the bis(2-pyridylmethyl)amine chelating moiety but incorporated an O-alkylsulfonate group to enhance water solubility, to determine the unperturbed ground-state pKa of the pyridyl acceptor.

[6] = Steady-state absorption and fluorescence spectroscopy, molar ratio titration with Zn(II); type: physicochemical
Description: General Spectroscopic Methods. All buffers and stock solutions used for spectroscopic measurements were prepared using either HPLC-grade water (JT Baker) or 18.2 MΩ.cm Mili-Q water and filtered through a 0.2 μm filter to remove interfering dust particles or fibers. UV-Vis measurements were performed on a Varian Cary Bio50 spectrophotometer with a constant temperature accessory (Peltier) at 25° C. Fluorescence measurements were performed with a PTI fluorimeter equipped with a 75 W xenon arc lamp excitation source and a photomultiplier detection system (PMT voltage was 1100 V for all experiments). Fluorescence spectra were corrected for the spectral response of the detection system and for the spectral irradiance of the excitation source (via a calibrated photodiode). For all experiments, both UV-Vis and fluorescence, a 1-cm path length quartz cuvette was used, except for quantum yield determinations, which were performed with a 10-cm path length quartz cuvette for absorbance measurements.
Molar Ratio Titration of Probe 3b with Zn(II). […] After each aliquot, the solution was equilibrated for 30 seconds by magnetic stirring, and an absorbance (spectral window: 250-500 nm) (FIG. 14A) and fluorescence spectrum (excitation: 361 nm, spectral window: 380-700 nm) (FIG. 14B) were acquired.
Molar Ratio Titration of Chromis-2 with Zn(II). […] After each aliquot, the solution was equilibrated for 30 seconds by magnetic stirring, and an absorbance (spectral window: 250-500 nm) and fluorescence spectrum (excitation: 361 nm, spectral window: 380-700 nm) were acquired.

[7] = Spectrophotometric pH titration, determination of protonation constants; type: physicochemical; conditions: aqueous 0.1 M KCl solution, 25° C., fit to a single protonation, read-out: ground-state pKa (pKH1) of the pyridyl acceptor
Description: FIG. 12. Spectrophotometric pH titration of compound 1 at 25° C. in aqueous buffer (5 mM PIPBS, 0.1 M KCl, 5 mM KOH, pH 5.6). Black arrows indicate the change in absorbance after each aliquot of HCl was added. The absorbance from 250-500 nm was recorded as a function of pHe (−log[H3O^+]), and the data were analyzed by non-linear least squares fitting to a single protonation to yield an average pKH1=4.49±0.002 (n=3).
FIG. 13. Spectrophotometric pH titration of compound 2 at 25° C. in 0.1 M KCl. Black arrows indicate the change in absorbance after each aliquot of HCl was added. The absorbance (250-500 nm) was recorded as a function of pHc (−log[H3O^+]), and the data were analyzed by non-linear least squares fitting to a single protonation to yield an average pKH1=2.34±0.002 (n=3).
Protonation constants were determined as concentration constants (log KH) based on potentiometric titrations using a combination double junction glass electrode. […] From the experimental emf data, the endpoint, electrode potential, and slope were determined using Gran's Method as implemented in the GLEE software package (pKw=13.78, μ=0.1 M KCl).^1 The calibration procedure was performed prior to each potentiometric titration, and the experimental electrode potential and slope that were used to calculate the experimental p[H] were derived as the average of the emf data from three independent titrations. […]

[8] = in 1N H2SO4; cited from earlier work
[9] = Neutral, 10 mM PIPES, 100 mM KCl, pH 7.0

Structure (SMILES) | change of UV-vis absorption spectrum (in words) [2] | ΦF fluorescence quantum yield [4] | pKa [5] | Abs λmax [6, 9] | Em λmax [6, 9] | ε [6, 9] | Abs λmax ([6]; Protonated, 0.1N HCl (pH 1.0)) | Em λmax ([6]; Protonated, 0.1N HCl (pH 1.0)) | ε ([6]; Protonated, 0.1N HCl (pH 1.0)) | pKa [7] | further results
COc1ccc(-c2cnc(-c3cccc(CN(Cc4ncccn4)Cc4ncccn4)n3)s2)cc1 [chromis-2] | – | – | – | – | – | – | – | – | – | – | increase of intensity ratio upon ZnSO4 and pyrithione ([1]; NIH 3T3): more than 4 fold; average intensity ratio R (BP2/BP1), initial ([1]; NIH 3T3, 10 μM probe, excitation 720 nm, before additions): 0.64±0.2; intensity ratio R after ZnSO4 and pyrithione ([1]; NIH 3T3, 50 μM ZnSO4 and 5 μM pyrithione): 2.36±0.6; intensity ratio R after TPEN ([1]; NIH 3T3, 100 μM TPEN): 0.55±0.2
COc1ccc(-c2ccc(-c3cnc(-c4ccccn4)s3)s2)cc1 [Compound III] | red-shifted absorption spectrum | – | – | – | – | – | – | – | – | – | –
O=S(=O)([O-])CCCOc1ccc(-c2cnc(-c3ccccn3)s2)cc1.[Na+] [compound 2, 3-(4-(2-(pyridin-2-yl)thiazol-5-yl)phenoxy)propane-1-sulfonate sodium salt] | – | 0.80 | 9.4 | 345 nm | 467 nm | 2.25 10^4 M^−1cm^−1 | 386 nm | 565 nm | 2.05 10^4 M^−1cm^−1 | 2.34 | solvent deuterium isotope effect on emission (in words) ([3]; D2O versus H2O buffers): identical emission profiles; excited-state pKa (pKa*) ([5]; sodium salt): 9.5
C=C[C@H]1C[N@@]2CC[C@H]1C[C@H]2[C@H](O)c1ccnc2ccc(OC)cc12 [quinine sulfate] | – | – | – | – | – | – | – | – | – | – | ΦF of fluorescence standard [8]: 0.546
O=S(=O)([O-])CCCOc1ccc(-c2cnc(-c3ccncc3)s2)cc1.[Na+] [compound 1, 3-(4-(2-(pyridin-4-yl)thiazol-5-yl)phenoxy)propane-1-sulfonate sodium salt] | – | 0.65 | ~11.7 | 346 nm | 489 nm | 1.80 10^4 M^−1cm^−1 | 397 nm | 582 nm | 1.96 10^4 M^−1cm^−1 | 4.49 ± 0.002 | increase in fluorescence intensity in D2O relative to H2O ([3]; 10 mM PIPES, 0.1 M KCl, pH/D 7.0, 25° C.): 18%
CN(C)c1ccc(-c2cnc(-c3ccccn3)s2)cc1 [Compound II] | red-shifted absorption spectrum | – | – | – | – | – | – | – | – | – | –

Source: US11604141B2, “Zinc-selective fluorescent probes for emission-ratiometric imaging” (Georgia Tech Research Corporation, priority 2017, dated 2023)
